Key:
[1] = target: T1, Endothelin receptor type B (Homo sapiens, UniProt P24530); test: Inhibitory concentration required against [125I]ET1 binding to membranes of CHO cells expressing human ETB receptor; format: cell membranes
T1 sequence (P24530 whole entry): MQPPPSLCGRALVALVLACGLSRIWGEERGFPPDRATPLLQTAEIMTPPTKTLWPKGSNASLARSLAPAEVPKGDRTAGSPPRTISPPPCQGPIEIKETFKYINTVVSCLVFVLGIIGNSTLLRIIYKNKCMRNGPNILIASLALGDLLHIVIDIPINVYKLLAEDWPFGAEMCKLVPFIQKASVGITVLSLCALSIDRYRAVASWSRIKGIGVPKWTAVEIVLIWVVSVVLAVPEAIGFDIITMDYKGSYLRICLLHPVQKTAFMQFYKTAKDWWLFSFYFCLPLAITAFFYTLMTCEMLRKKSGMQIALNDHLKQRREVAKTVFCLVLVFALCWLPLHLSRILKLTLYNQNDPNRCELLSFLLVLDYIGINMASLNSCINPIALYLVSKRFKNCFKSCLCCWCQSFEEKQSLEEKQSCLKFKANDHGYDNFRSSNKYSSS

Endothelin-1 receptor [2] = target: T2, Endothelin-1 receptor (Rattus norvegicus, UniProt P26684); test: In vitro inhibitory potency for preventing ET-1 induced constriction of rat aortic rings (ETA receptor); format: functional; settings: read-out: pA2 (converted)
T2 sequence (P26684 whole entry): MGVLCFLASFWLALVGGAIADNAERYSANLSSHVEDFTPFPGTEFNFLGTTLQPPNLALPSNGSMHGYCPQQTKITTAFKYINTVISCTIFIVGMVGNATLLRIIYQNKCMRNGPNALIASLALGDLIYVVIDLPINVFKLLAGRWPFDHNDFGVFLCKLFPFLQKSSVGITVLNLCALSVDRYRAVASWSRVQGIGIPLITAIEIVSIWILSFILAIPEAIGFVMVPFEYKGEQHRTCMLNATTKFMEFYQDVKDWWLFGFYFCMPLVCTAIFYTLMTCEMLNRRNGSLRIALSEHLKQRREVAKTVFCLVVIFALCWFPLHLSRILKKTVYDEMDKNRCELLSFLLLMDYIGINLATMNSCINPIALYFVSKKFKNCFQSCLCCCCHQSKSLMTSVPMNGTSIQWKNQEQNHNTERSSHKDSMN

Endothelin-1 receptor [3] = target: T3, Endothelin-1 receptor (Homo sapiens, UniProt P25101); test: Inhibitory concentration required against [125I]ET1 binding to membranes of CHO cells expressing human ETA receptor; format: cell membranes
T3 sequence (P25101 whole entry): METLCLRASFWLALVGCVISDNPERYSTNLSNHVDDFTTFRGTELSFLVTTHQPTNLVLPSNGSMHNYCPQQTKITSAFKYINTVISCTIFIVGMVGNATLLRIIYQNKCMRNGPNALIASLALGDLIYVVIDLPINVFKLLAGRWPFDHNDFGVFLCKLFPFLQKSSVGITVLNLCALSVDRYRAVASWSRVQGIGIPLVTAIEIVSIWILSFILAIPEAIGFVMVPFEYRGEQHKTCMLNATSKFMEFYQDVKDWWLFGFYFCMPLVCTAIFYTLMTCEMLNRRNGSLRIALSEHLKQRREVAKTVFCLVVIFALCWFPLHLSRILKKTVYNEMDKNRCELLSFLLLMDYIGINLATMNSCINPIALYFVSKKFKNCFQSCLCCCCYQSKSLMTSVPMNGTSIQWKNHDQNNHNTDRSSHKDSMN

[4] = target: T4, Endothelin receptor type B (Rattus norvegicus, UniProt P21451); test: In vitro inhibitory potency for preventing sarafotoxin S6c induced constriction of rat tracheal rings (ETB receptor); format: functional, tissue-based, Trachea; settings: read-out: pA2 (converted)
T4 sequence (P21451 whole entry): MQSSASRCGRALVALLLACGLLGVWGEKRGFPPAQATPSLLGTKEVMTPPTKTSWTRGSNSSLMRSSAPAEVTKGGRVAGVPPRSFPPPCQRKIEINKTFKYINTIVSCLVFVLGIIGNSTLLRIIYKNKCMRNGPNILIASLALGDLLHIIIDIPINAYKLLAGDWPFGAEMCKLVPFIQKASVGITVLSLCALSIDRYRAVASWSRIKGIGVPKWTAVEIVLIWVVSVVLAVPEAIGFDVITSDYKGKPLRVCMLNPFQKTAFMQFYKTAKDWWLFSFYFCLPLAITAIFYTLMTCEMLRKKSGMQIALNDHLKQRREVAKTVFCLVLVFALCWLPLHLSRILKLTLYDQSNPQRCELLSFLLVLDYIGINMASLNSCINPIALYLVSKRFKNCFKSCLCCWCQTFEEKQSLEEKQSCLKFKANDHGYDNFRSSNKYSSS

SMILES: CCCS(=O)(=O)NCCOc1nc(C2CC2)nc(NS(=O)(=O)c2ccc(C(C)C)cn2)c1Oc1ccccc1OC
- IC50 [1]: 84 nM
- Kb (Endothelin-1 receptor [2]): 288 nM
- IC50 (Endothelin-1 receptor [3]): 80 nM
- Kb [4]: 363 nM

SMILES: CCS(=O)(=O)NCCOc1nc(-c2ncccn2)nc(NS(=O)(=O)c2ccc(C(C)(C)C)cc2)c1Oc1ccccc1OC
- IC50 [1]: 873 nM
- IC50 (Endothelin-1 receptor [3]): 487 nM

SMILES: COc1ccccc1Oc1c(NS(=O)(=O)c2ccc(C(C)(C)C)cc2)nc(-c2ncccn2)nc1OCCNS(=O)(=O)c1cccs1
- IC50 [1]: 16 nM

SMILES: CCS(=O)(=O)NCCOc1nc(C2CC2)nc(NS(=O)(=O)c2ccc(C(C)C)cn2)c1Oc1ccccc1OC
- IC50 [1]: 397 nM
- Kb (Endothelin-1 receptor [2]): 347 nM
- IC50 (Endothelin-1 receptor [3]): 50 nM
- Kb [4]: 269 nM

SMILES: COc1ccccc1Oc1c(NS(=O)(=O)c2ccc(C(C)(C)C)cc2)nc(C2CC2)nc1OCCCNS(=O)(=O)c1cccs1
- IC50 [1]: 2 nM
- IC50 (Endothelin-1 receptor [3]): 14 nM

SMILES: COc1ccccc1Oc1c(NS(=O)(=O)c2ccc(C(C)C)cn2)nc(-c2cc(OC)c(OC)c(OC)c2)nc1OCCNS(=O)(=O)c1ccc(C)cc1
- IC50 [1]: 4 nM
- Kb (Endothelin-1 receptor [2]): > 10000 nM

SMILES: COc1ccccc1Oc1c(NS(=O)(=O)c2ccc(C)cn2)nc(C2CC2)nc1OCCNS(=O)(=O)c1cccs1
- IC50 [1]: 8240 nM
- IC50 (Endothelin-1 receptor [3]): 1850 nM

SMILES: CCCS(=O)(=O)NCCOc1nc(C2CC2)nc(NS(=O)(=O)c2ccc(C)cn2)c1Oc1ccccc1OC
- IC50 [1]: 4670 nM
- IC50 (Endothelin-1 receptor [3]): 1320 nM

SMILES: CCCS(=O)(=O)NCCOc1nc(-c2cc(OC)c(OC)c(OC)c2)nc(NS(=O)(=O)c2ccc(C(C)C)cn2)c1Oc1ccccc1OC
- IC50 [1]: 24 nM
- Kb (Endothelin-1 receptor [2]): 3160 nM
- Kb [4]: 33.1 nM

SMILES: CCCS(=O)(=O)NCCCOc1nc(C2CC2)nc(NS(=O)(=O)c2ccc(C(C)C)cn2)c1Oc1ccccc1OC
- Kb (Endothelin-1 receptor [2]): 245 nM
- Kb [4]: 69.2 nM

SMILES: CCS(=O)(=O)NCCCOc1nc(C2CC2)nc(NS(=O)(=O)c2ccc(C(C)C)cn2)c1Oc1ccccc1OC
- Kb (Endothelin-1 receptor [2]): 105 nM
- Kb [4]: 269 nM

SMILES: COc1ccccc1Oc1c(NS(=O)(=O)c2ccc(C(C)(C)C)cc2)nc(-c2ncccn2)nc1OCCCNS(=O)(=O)c1cccs1
- IC50 [1]: 4 nM
- IC50 (Endothelin-1 receptor [3]): 86 nM

SMILES: COc1ccccc1Oc1c(NS(=O)(=O)c2ccc(C(C)C)cn2)nc(-c2cc(OC)c(OC)c(OC)c2)nc1OCCNS(=O)(=O)c1cccs1
- IC50 [1]: 7 nM
- Kb [4]: 38.9 nM

SMILES: COc1ccccc1Oc1c(NS(=O)(=O)c2ccc(C)cn2)nc(-c2cc(OC)c(OC)c(OC)c2)nc1OCCNS(=O)(=O)c1cccs1
- IC50 [1]: 351 nM
- IC50 (Endothelin-1 receptor [3]): 2770 nM

SMILES: COc1ccccc1Oc1c(NS(=O)(=O)c2ccc(C)cn2)nc(-c2ccncc2)nc1OCCNS(=O)(=O)c1ccc(C)cc1
- IC50 [1]: 1540 nM

SMILES: CCS(=O)(=O)NCCCOc1nc(-c2ncccn2)nc(NS(=O)(=O)c2ccc(C(C)(C)C)cc2)c1Oc1ccccc1OC
- IC50 [1]: 101 nM
- IC50 (Endothelin-1 receptor [3]): 1590 nM

SMILES: COc1ccccc1Oc1c(NS(=O)(=O)c2ccc(C)cn2)nc(-c2ccncc2)nc1OCCNS(=O)(=O)c1cccs1
- IC50 [1]: 3680 nM
- IC50 (Endothelin-1 receptor [3]): 2840 nM

SMILES: COc1ccccc1Oc1c(NS(=O)(=O)c2ccc(C(C)C)cn2)nc(N2CCOCC2)nc1OCCNS(=O)(=O)c1ccc(C)cc1
- IC50 [1]: 9 nM
- IC50 (Endothelin-1 receptor [3]): 1380 nM

SMILES: COc1ccccc1Oc1c(NS(=O)(=O)c2ccc(C(C)C)cn2)nc(C2CC2)nc1OCCCNS(=O)(=O)c1ccc(C)cc1
- IC50 [1]: 19 nM
- Kb (Endothelin-1 receptor [2]): 309 nM
- Kb [4]: 49 nM

SMILES: COc1ccccc1Oc1c(NS(=O)(=O)c2ccc(C(C)C)cn2)nc(C2CC2)nc1OCCCNS(=O)(=O)c1cccs1
- IC50 [1]: 4 nM
- Kb (Endothelin-1 receptor [2]): 120 nM
- Kb [4]: 9.12 nM

SMILES: CCS(=O)(=O)NCCOc1nc(N2CCOCC2)nc(NS(=O)(=O)c2ccc(C(C)C)cn2)c1Oc1ccccc1OC
- IC50 [1]: 122 nM
- IC50 (Endothelin-1 receptor [3]): 19 nM

SMILES: COc1ccccc1Oc1c(NS(=O)(=O)c2ccc(C(C)C)cn2)nc(N2CCOCC2)nc1OCCCNS(=O)(=O)c1ccc(C)cc1
- IC50 [1]: 24 nM
- Kb (Endothelin-1 receptor [2]): 4790 nM
- IC50 (Endothelin-1 receptor [3]): 116 nM
- Kb [4]: 107 nM

SMILES: CCS(=O)(=O)NCCOc1nc(C2CC2)nc(NS(=O)(=O)c2ccc(C)cn2)c1Oc1ccccc1OC
- IC50 [1]: 5660 nM
- IC50 (Endothelin-1 receptor [3]): 582 nM

SMILES: CCCS(=O)(=O)NCCOc1nc(N2CCOCC2)nc(NS(=O)(=O)c2ccc(C)cn2)c1Oc1ccccc1OC
- IC50 [1]: 931 nM
- IC50 (Endothelin-1 receptor [3]): 51 nM

SMILES: COc1ccccc1Oc1c(NS(=O)(=O)c2ccc(C)cn2)nc(Cc2ccc3c(c2)OCO3)nc1OCCNS(=O)(=O)c1cccs1
- IC50 [1]: 2110 nM

SMILES: CCCS(=O)(=O)NCCOc1nc(N2CCOCC2)nc(NS(=O)(=O)c2ccc(C(C)C)cn2)c1Oc1ccccc1OC
- Kb (Endothelin-1 receptor [2]): 832 nM
- Kb [4]: 240 nM

— ChEMBL document CHEMBL1136631, “Bis-sulfonamides as endothelin receptor antagonists” (Bioorg Med Chem Lett, 2003)
